Source: patent US6358921B1, “Antimicrobial peptide compositions and method” (priority 1996, dated 2002)

How the values were obtained:
[1] = test system: E. coli UB1005; assay type: cell-based, Escherichia coli; conditions: UB1005
Text: (§1) The following bacterial strains were utilized: Escherichia coli UB1005 (wt) and its antibiotic supersusceptible derivative DC2 (Clark, 1984); Excherichia coli SC9251 and its polymixin B rasistant mutant pmrA SC9252 (Peterson, et al., 1987) Pseudomonas aeruginosa H187 (wt) (Angus, et al., 1987) and its antibiotic-sensitive derivative H188 (Zimmerman, W, Antimicrob. Agents Chemother. 18: 94-100, 1980); methicillin sensitive Staphylococcus aureus K147 (Kreiswirth, et al., 1983); Staphylococcus aureus SAP0017, a methicillin resistant clinical isolate from Dr. A. Chow (University of British Columia); Bacillus subtilis, an environmental wt lab strain. Enterococcus faecalis are ATCC 29212 cells and Staphylococcus epidermidis was a clinical isolate from Dr. D. Speert (University of British Columbia). Antifungal activity was tested using a clinical lab isolate of Candida albicans. Salmonella typhinurium C57 and C610 (Fields, P.I., et al., Science 243: 1059-1062 (1989) Corynebacterium xerosis was an environmental isolate (University of British Columbia).
(§2) It is now apparent that agar-based assays severely underestimate antifungal activity as well as activity against gram negative microorganisms (Kondejewski, et al., 1996). Consequently, in the studies reported herein, a liquid-broth method was used to measure the antibiotic properties of the peptides. […] Briefly, cells were grown overnight at 37° C. in LB and diluted in the same medium. Serial dilutions of antibiotics were added to the microtitre plates in a volume of 100 μL followed by 10 μL of bacteria to give a final inoculum of 5×10^5 CFU/mL. Plates were incubated at 37° C. overnight and MICs determined as the lowest antibiotic concentration that inhibited growth. […]

[2] = Displacement of dansyl-polymyxin from LPS; assay type: binding, P. aeruginosa; conditions: read-out: LPS binding affinity: peptide concentration to displace 50% of dansyl-polymyxin B from LPS; Tables 1, 4, 7
Text: In order to determine whether ring size affects the interaction between the peptide and bacterial membranes, we studied the interaction between the GS ring analogs and bacterial lipopolysaccharide (LPS). It has been shown previously that dansyl-polymixin (DPX) is a good probe for cationic binding sites on both purified LPS as well as whole bacterial cells (Example 8; Moore, et al., 1986; Sawyer, et al., 1988; Hancock, 1981). […] The LPS binding activity of various GS analogs was investigated, as discussed above.
Dansyl-polymixin (DPX) displacement from P. aeruginosa LPS was measured as described (Moore, et al., 1986). Briefly, peptides were titrated into cuvettes containing 3 μg of LPS per mL and 2.5 μM dansyl-polymixin (approximately 90% saturation of LPS binding sites) in 1 mL of 5 mM sodium HEPES buffer, pH 7.0, and the decrease in fluorescence recorded. A plot of the inverse of the percent inhibition as a function of the inverse of inhibitor concentration gave a value for I50, the inhibitor concentration resulting in 50% displacement of dansyl-polymixin from LPS (−1/× intercept).

[3] = test system: P. aeruginosa H188; assay type: cell-based, Pseudomonas aeruginosa; conditions: H188
Text: as §1, §2

[4] = test system: E. faecalis; assay type: cell-based, Enterococcus faecalis
Text: as §1, §2

[5] = test system: P. aeruginosa H187; assay type: cell-based, Pseudomonas aeruginosa; conditions: H187
Text: as §1
(§3) It is now apparent that agar-based assays severely underestimate antifungal activity as well as activity against gram negative microorganisms (Kondejewski, et al., 1996). Consequently, in the studies reported herein, a liquid-broth method was used to measure the antibiotic properties of the peptides. […] Briefly, cells were grown overnight at 37° C. in LB and diluted in the same medium. Serial dilutions of antibiotics were added to the microtitre plates in a volume of 100 μL followed by 10 μL of bacteria to give a final inoculum of 5×10^5 CFU/mL. Plates were incubated at 37° C. overnight and MICs determined as the lowest antibiotic concentration that inhibited growth.
(§4) The results from antimicrobial and hemolytic assays are combined to provide a “Therapeutic Index” (TI) for each peptide with respect to individual microorganisms. As reported herein, the TI is calculated as the hemolytic activity divided by the antimicrobial activity. The TI thus is a measure of specificity of the particular peptide for microbial membranes as opposed to human blood cell membranes. In the present studies, antimicrobial activities are reported as minimum inhibitory concentrations (MIC)—the lowest concentration of peptide (μg/ml) found to inhibit growth of the particular microbe. Hemolytic activity is reported as the concentration of peptide that effected complete lysis of blood cells after four hours. Thus, in the context of the present invention high TI values indicate microbial specificity and relative lack of toxicity.

[6] = test system: C. xeroses; assay type: cell-based, Corynebacterium xerosis
Text: as §1, §2

[7] = test system: S. epidermidis; assay type: cell-based, Staphylococcus epidermidis
Text: as §1, §2

[8] = test system: S. typhinurium C610; assay type: cell-based, Salmonella typhinurium
Text: as §1, §2

[9] = test system: B. subtilis; assay type: cell-based, Bacillus subtilis
Text: as §1, §2

[10] = test system: E. coli DC2; assay type: cell-based, Escherichia coli; conditions: DC2
Text: as §1, §3, §4

[11] = test system: S. aureus K147; assay type: cell-based, Staphylococcus aureus
Text: as §1, §3, §4

[12] = test system: S. aureus SAP0017; assay type: cell-based, Staphylococcus aureus
Text: as §1, §3, §4

[13] = test system: S. typhinurium C587; assay type: cell-based, Salmonella typhinurium
Text: as §1, §2

[14] = test system: C. Albicans; assay type: cell-based, Candida albicans
Text: as §1, §2

Row | SMILES | Minimum Inhibitory Concentration (activity) [1] | IC50 [2] | Minimum Inhibitory Concentration (activity) [3] | Minimum Inhibitory Concentration (activity) [4] | Minimum Inhibitory Concentration (activity) [5] | Minimum Inhibitory Concentration (activity) [6] | Minimum Inhibitory Concentration (activity) [7] | Minimum Inhibitory Concentration (activity) [8] | Minimum Inhibitory Concentration (activity) [9] | Minimum Inhibitory Concentration (activity) [10] | Minimum Inhibitory Concentration (activity) [11] | Minimum Inhibitory Concentration (activity) [12] | Minimum Inhibitory Concentration (activity) [13] | Minimum Inhibitory Concentration (activity) [14]
1 | CC(C)C[C@@H]1NC(=O)[C@H](CCCCN)NC(=O)[C@H](C(C)C)NC(=O)[C@@H]2CCCN2C(=O)[C@@H](Cc2ccc(O)cc2)NC(=O)[C@H](CC(C)C)NC(=O)[C@H](CCCCN)NC(=O)[C@H](C(C)C)NC(=O)[C@H](CCCCN)NC(=O)[C@H](CC(C)C)NC(=O)[C@@H]2CCCN2C(=O)[C@@H](Cc2ccc(O)cc2)NC(=O)[C@H](C(C)C)NC(=O)[C@@H](CCCCN)NC1=O [GS14K4] | 6.2 µg/mL | 93 µM | 3.1 µg/mL | 1.5 µg/mL | 25 µg/mL | 1.5 µg/mL | 2 µg/mL | 4 µg/mL | 25 µg/mL | 3.1 µg/mL | 100 µg/mL | 50 µg/mL |  | 
2 | CC(C)C[C@@H]1NC(=O)[C@H](CCCCN)NC(=O)[C@H](C(C)C)NC(=O)[C@@H]2CCCN2C(=O)[C@@H](Cc2ccc(O)cc2)NC(=O)[C@H](CC(C)C)NC(=O)[C@H](CCCCN)NC(=O)[C@H](C(C)C)NC(=O)[C@H](CCCCN)NC(=O)[C@H](CC(C)C)NC(=O)[C@@H]2CCCN2C(=O)[C@H](Cc2ccc(O)cc2)NC(=O)[C@H](C(C)C)NC(=O)[C@H](CCCCN)NC1=O [GS14Y6] | 50 µg/mL | 20 µM | 50 µg/mL | 3.1 µg/mL | 200 µg/mL | 1 µg/mL | 6.2 µg/mL | 100 µg/mL | >200 µg/mL | 3.1 µg/mL | >200 µg/mL | >200 µg/mL | >200 µg/mL | 
3 | CC(C)C[C@@H]1NC(=O)[C@H](CCCCN)NC(=O)[C@H](C(C)C)NC(=O)[C@@H]2CCCN2C(=O)[C@@H](Cc2ccc(O)cc2)NC(=O)[C@H](CC(C)C)NC(=O)[C@@H](CCCCN)NC(=O)[C@H](C(C)C)NC(=O)[C@H](CCCCN)NC(=O)[C@H](CC(C)C)NC(=O)[C@@H]2CCCN2C(=O)[C@@H](Cc2ccc(O)cc2)NC(=O)[C@H](C(C)C)NC(=O)[C@H](CCCCN)NC1=O [GS14K11] | 6.2 µg/mL | 50 µM | 5 µg/mL | 1.5 µg/mL | 37 µg/mL | 0.8 µg/mL | 3.1 µg/mL | 6.2 µg/mL | 25 µg/mL | 3.1 µg/mL | 25 µg/mL | 25 µg/mL |  | 6.2 µg/mL
4 | CC(C)C[C@@H]1NC(=O)[C@H](CCCCN)NC(=O)[C@H](C(C)C)NC(=O)[C@@H]2CCCN2C(=O)[C@@H](Cc2ccc(O)cc2)NC(=O)[C@H](CC(C)C)NC(=O)[C@H](CCCCN)NC(=O)[C@H](C(C)C)NC(=O)[C@H](CCCCN)NC(=O)[C@@H](CC(C)C)NC(=O)[C@@H]2CCCN2C(=O)[C@@H](Cc2ccc(O)cc2)NC(=O)[C@H](C(C)C)NC(=O)[C@H](CCCCN)NC1=O [GS14L8] | 6.2 µg/mL | 62 µM | 3.1 µg/mL | 1.5 µg/mL | 37 µg/mL | 0.8 µg/mL | 3.1 µg/mL | 6.2 µg/mL |  | 3.1 µg/mL | 50 µg/mL | 25 µg/mL |  | 6.2 µg/mL
5 | CC(C)C[C@@H]1NC(=O)[C@H](CCCCN)NC(=O)[C@H](C(C)C)NC(=O)[C@@H]2CCCN2C(=O)[C@@H](Cc2ccc(O)cc2)NC(=O)[C@H](CC(C)C)NC(=O)[C@H](CCCCN)NC(=O)[C@H](C(C)C)NC(=O)[C@H](CCCCN)NC(=O)[C@H](CC(C)C)NC(=O)[C@@H]2CCCN2C(=O)[C@@H](Cc2ccc(O)cc2)NC(=O)[C@@H](C(C)C)NC(=O)[C@H](CCCCN)NC1=O [GS14V5] | 15 µg/mL | 33 µM | 62 µg/mL | 1.5 µg/mL | 100 µg/mL |  | 3.1 µg/mL |  | 200 µg/mL | 3.1 µg/mL | 100 µg/mL | 50 µg/mL | 100 µg/mL | 6.2 µg/mL
6 | CC(C)C[C@@H]1NC(=O)[C@H](CCCCN)NC(=O)[C@H](C(C)C)NC(=O)[C@@H]2CCCN2C(=O)[C@@H](Cc2ccc(O)cc2)NC(=O)[C@H](CC(C)C)NC(=O)[C@H](CCCCN)NC(=O)[C@@H](C(C)C)NC(=O)[C@H](CCCCN)NC(=O)[C@H](CC(C)C)NC(=O)[C@@H]2CCCN2C(=O)[C@@H](Cc2ccc(O)cc2)NC(=O)[C@H](C(C)C)NC(=O)[C@H](CCCCN)NC1=O [GS14V10] | 200 µg/mL | 18 µM | 200 µg/mL | 1.5 µg/mL | >200 µg/mL | 0.8 µg/mL | 3.1 µg/mL | 200 µg/mL |  | 3.1 µg/mL | 200 µg/mL | 50 µg/mL | >200 µg/mL | 17 µg/mL
